The source of these data is ChEMBL document CHEMBL3992523, “Potent Inhibition of Nitric Oxide-Releasing Bifendate Derivatives against Drug-Resistant K562/A02 Cells in Vitro and in Vivo” (J Med Chem, 2017).

A value given as a limit tells only on which side of the number the result lay.

One series relates to K562. Kind of series: Anti-proliferative activity against human K562 cells measured after 72 hrs by MTS assay. The following applies: K562, 72 h. In kind it is functional, cell-based. For orientation: Formazan colour is commonly taken as a measure of viable cells.
In the next series the test system is K562/A02. Put plainly: Anti-proliferative activity against P-gp overexpressing/drug resistant human K562/A02 cells measured after 72 hrs by MTS assay. The settings on record: K562/A02, 72 h. In kind it is functional, cell-based.
Series [1] is described as follows: Resistant factor, ratio of IC50 for P-gp overexpressing/drug resistant human K562/A02 cells to IC50 for human K562 cells. In kind it is functional.
A short description of series [2]: Drug metabolism in P-gp overexpressing/drug resistant human K562/A02 cells assessed as nitric oxide production at 100 uM measured at 240 mins by Griess assay. In kind it is ADME, cell-based. The settings on record: k562/a02, 4 h. For orientation: Griess reagent forms a coloured azo dye with nitrite.

By IC50 is commonly meant the midpoint of a concentration-inhibition curve. Read a low IC50 as higher potency.

For `O=C(CN1CCC(OC(=O)c2ccccc2)CC1)OCCCCOc1nonc1S(=O)(=O)c1ccccc1`, the results for the IC50 in the series with K562 and in the series with K562/A02 were 4060 nM and 6650 nM, respectively. For the same molecule, the “Ratio IC50” value in series [1] is recorded as 1.6.
On to `COC(=O)c1cc(OC)c2c(c1-c1c(C(=O)OC3CCN(CC(=O)NCCOc4no[n+]([O-])c4S(=O)(=O)c4ccccc4)CC3)cc(OC)c3c1OCO3)OCO2`, for which the IC50 with K562 was found to be 1280 nM; in the series with K562/A02 it was 3160 nM. The Drug metabolism entry in series [2] is listed as “Metabolite_Detected”. Besides, the “Ratio IC50” value in series [1] is on record as 2.5.
As for `COC(=O)c1cc(OC)c2c(c1-c1c(C(=O)OCCN3CCN(CC(=O)OC(C)(C)CCOc4no[n+]([O-])c4S(=O)(=O)c4ccccc4)CC3)cc(OC)c3c1OCO3)OCO2`, the IC50 with K562 is 860 nM; in the series with K562/A02, 1510 nM. Besides, the Drug metabolism result in series [2] is listed as “Metabolite_Detected”. The “Ratio IC50” value in series [1] is 1.8.
As for `COC(=O)c1cc(OC)c2c(c1-c1c(C(=O)OC3CCN(CC(=O)OC(C)CCOc4no[n+]([O-])c4S(=O)(=O)c4ccccc4)CC3)cc(OC)c3c1OCO3)OCO2` (centres undefined), the IC50 in the series on K562 was 390 nM; with K562/A02, 760 nM. Also, the “Ratio IC50” value in series [1] came out at 1.9.
With `COC(=O)c1cc(OC)c2c(c1-c1c(C(=O)OCCN3CCN(CC(=O)OCCCCOc4no[n+]([O-])c4S(=O)(=O)c4ccccc4)CC3)cc(OC)c3c1OCO3)OCO2`, the IC50 turned out to be 690 nM in the series with K562 and 1570 nM in the series with K562/A02. Further, the “Ratio IC50” value in series [1] was 2.3.
In the same order, the values of `COC(=O)c1cc(OC)c2c(c1-c1c(C(=O)OC3CCN(CC(=O)OCCCOc4no[n+]([O-])c4S(=O)(=O)c4ccccc4)CC3)cc(OC)c3c1OCO3)OCO2` are 800 nM, 590 nM and 0.7.
On to `COC(=O)c1cc(OC)c2c(c1-c1c(C(=O)OCCN3CCN(CC(=O)OCCOc4no[n+]([O-])c4S(=O)(=O)c4ccccc4)CC3)cc(OC)c3c1OCO3)OCO2`, for which the IC50 in the series on K562 worked out at 580 nM; with K562/A02, 2010 nM. Also, in series [1], the “Ratio IC50” value is recorded as 3.5.
Consider `COC(=O)c1cc(OC)c2c(c1-c1c(C(=O)OCCN3CCN(CC(=O)OCCOCCOc4no[n+]([O-])c4S(=O)(=O)c4ccccc4)CC3)cc(OC)c3c1OCO3)OCO2`, for which the IC50 in the series on K562 amounted to 380 nM; with K562/A02, 2300 nM. In addition, in series [1], the “Ratio IC50” value is recorded as 6.1.
With `COC(=O)c1cc(OC)c2c(c1-c1c(C(=O)OCCN3CCN(CC(=O)OCCCOc4no[n+]([O-])c4S(=O)(=O)c4ccccc4)CC3)cc(OC)c3c1OCO3)OCO2`, the IC50 in the series with K562 was 750 nM; in the series with K562/A02 it was 930 nM. For the same molecule, the Drug metabolism result in series [2] is on record as “Metabolite_Detected”. The “Ratio IC50” value in series [1] was 1.2.
With `COC(=O)c1cc(OC)c2c(c1-c1c(C(=O)OCCN3CCN(CC(=O)NCCOc4no[n+]([O-])c4S(=O)(=O)c4ccccc4)CC3)cc(OC)c3c1OCO3)OCO2`, the IC50 in the series on K562 worked out at 550 nM; with K562/A02, 3010 nM. Further, in series [1], the “Ratio IC50” value is 5.5.
Turning to `COC(=O)c1cc(OC)c2c(c1-c1c(C(=O)OC)cc(OC)c3c1OCO3)OCO2` [BIFENDATE], the IC50 in the series with K562 and in the series with K562/A02 was above 200000 nM in each case.
Regarding `COC(=O)c1cc(OC)c2c(c1-c1c(C(=O)OC3CCN(CC(=O)OCCOc4no[n+]([O-])c4S(=O)(=O)c4ccccc4)CC3)cc(OC)c3c1OCO3)OCO2`, the IC50 with K562 was 510 nM; in the series on K562/A02, 650 nM. Besides, the “Ratio IC50” value in series [1] stood at 1.3.
For `COC(=O)c1cc(OC)c2c(c1-c1c(C(=O)OCCN3CCN(CC(=O)OC(C)CCOc4no[n+]([O-])c4S(=O)(=O)c4ccccc4)CC3)cc(OC)c3c1OCO3)OCO2` (centres undefined), the IC50 turned out to be 380 nM in the series with K562 and 810 nM in the series with K562/A02. Moreover, the “Ratio IC50” value in series [1] was determined as 2.1.
With `COC(=O)c1cc(OC)c2c(c1-c1c(C(=O)OC3CCN(CC(=O)OC(C)(C)CCOc4no[n+]([O-])c4S(=O)(=O)c4ccccc4)CC3)cc(OC)c3c1OCO3)OCO2`, the 50% inhibitory concentration (IC50) in the series on K562 is 870 nM; with K562/A02, 910 nM. The “Ratio IC50” value in series [1] turned out to be 1.1.
